Like-named read-outs stand apart in the source and are kept apart here.
Experiments:
[1] = amide bond
[2] = Metabolic stability, human microsomes; type: in vitro ADME; settings: % of the initial 0 minutes value at 60 min, 10 μM, 37° C.
Description: (§1) Microsomes from a human 50 donor mixed gender pool and 1:1 mixtures of microsomes from CD-1 mouse single-gender pools are purchased from Celsis (Belgium). The enzymatic reaction is performed in a buffer containing an NADPH regeneration system and microsomes with the following end concentrations: 100 mM potassium phosphate buffer (all from Sigma), 1 mg/mL glucose-6-phosphate, 1 mg/mL β-nicotinamide adenine dinucleotide phosphate (NADP), 0.65 mg/mL magnesium chloride, 0.8 units/mL of glucose-6-phosphate dehydrogenase (prediluted with 5 mM citrate buffer), 10 μM compound and 1 mg/ml microsomal protein. Compounds are incubated at 37° C. in duplicates and samples are taken after 0, 20 and 60 minutes. After acetonitrile precipitation (2 volumes) and HPLC/MS/MS analysis metabolic turnover is expressed in % of the initial 0 minutes value and half life T½ (min) is calculated. Verapamil for human and propranolol for mouse are used as reference and are assayed with every experimental set. • F. P. Guengerich, Analysis and Characterization of Enzymes; in: Principles and Methods of Toxicology; A. W. Hayes (Ed.) Raven Press: New York, 1989, 777-813. • R. Singh et al., In vitro metabolism of a potent HIV-protease inhibitor (141W94) using rat, monkey and human liver S9, Rapid Commun. Mass Spectrom. 1996, 10, 1019-1026. 5. Results

[3] = Metabolic stability, CD-1 mouse microsomes; type: in vitro ADME; settings: % of the initial 0 minutes value at 60 min, 10 μM, 37° C.
Description: as §1

[4] = human, 10 μM
Description: (§2) Example compounds were dissolved in DMSO/H2O 90:10 to a final concentration of 10 mM for plasma stability determination and metabolic stability determination.
(§3) Human plasma (3-5 donors, Blutspendedienst SRK, Basel) and CD-1 mouse plasma (mixed gender pool>50 animals, Innovative Research, CA, USA) are both sodium citrate stabilized. The assay is performed in triplicates at 10 μM compound concentration and 37° C. Samples are taken at 0, 15, 60, and 240 minutes and stopped by precipitation with 2 volumes of acetonitrile. The supernatant is collected, evaporated and reconstituted in a 5% acetonitrile solution to be analyzed by HPLC/MS/MS. The resulting peak area counts are expressed in percent of the 0 value and used to determine the endpoint stability in % and the half life T½ in minutes. In order to monitor assay integrity the degradation of propantheline is assayed with every experimental set

[5] = both, CD-1, mouse, 10 μM
Description: as §2, §3

Row | Structure (SMILES) | Metabolic Stability 60 min hum [2] | Metabolic Stability 60 min mouse [3] | Plasma Stability 240 min hum [4] | Plasma Stability 240 min mouse [5] | also measured
1 | CN1CCC[C@H](NC(=O)OCc2ccccc2)C(=O)N2C[C@@H](NC(=O)OCC[Si](C)(C)C)C[C@H]2COc2cccc(c2)C1=O |  |  |  |  | ring closure, yield of all isomers ([1]; from CN(CCC[C@H](NC(=O)OCc1ccccc1)C(=O)O)C(=O)c1cccc(OC[C@@H]2C[C@H](NC(=O)OCC[Si](C)(C)C)CN2)c1, T3P, i-Pr2NEt, CH2Cl2, 9.4 mM): 54%
2 | CN1CC(=O)N2C[C@H](NC(=O)OC(C)(C)C)C[C@H]2CSc2cccc(c2)C(=O)N(C)[C@H](C(=O)OCc2ccccc2)CCC1=O |  |  |  |  | ring closure, yield of all isomers ([1]; from CNCC(=O)N1C[C@H](NC(=O)OC(C)(C)C)C[C@H]1CSc1cccc(C(=O)N(C)[C@@H](CCC(=O)O)C(=O)OCc2ccccc2)c1, T3P, CH2Cl2, 10.0 mM, 25.0 °C, 3.0 h): 57%
3 | CN1CC(=O)N2C[C@H](NC(=O)CN3CCCC3)C[C@H]2COc2ccc(cc2)C(=O)N(C)[C@H](C(=O)NCc2ccncc2)CCC1=O [Ex. 266, (4S,6R,15S)-11,16-dimethyl-9,12,17-trioxo-N-(4-pyridinylmethyl)-6-{[2-(1-pyrrolidinyl)acetyl]amino}-2-oxa-8,11,16-triazatricyclo[16.2.2.0^4,8]docosa-1(20),18,21-triene-15-carboxamide] | 100% | 98% | 92% | 74% | 
4 | CN(C)CC(=O)N[C@@H]1C[C@H]2COc3cccc(c3)C(=O)N(C)C[C@H](NC(=O)Cc3ccc4ccccc4c3)C(=O)N(C)CC(=O)N2C1 [Ex. 230, 2-(dimethylamino)-N-[(4S,6R,13S)-11,15-dimethyl-13-{[2-(2-naphthyl)acetyl]amino}-9,12,16-trioxo-2-oxa-8,11,15-triazatricyclo[15.3.1.0^4,8]henicosa-1(21),17,19-trien-6-yl]acetamide] | 61% | 90% | 100% | 95% | 
5 | CN1C(=O)c2cc(F)ccc2OC[C@@H]2CN(C(=O)OC(C)(C)C)CCN2C(=O)CC[C@H]1C(=O)OCc1ccccc1 |  |  |  |  | ring closure, yield of all isomers ([1]; from CN(C(=O)c1cc(F)ccc1OC[C@@H]1CN(C(=O)OC(C)(C)C)CCN1)[C@@H](CCC(=O)O)C(=O)OCc1ccccc1, T3P, CH2Cl2, 0.57 mM, 25.0 °C, 22.0 h): 77%
6 | CN1C(=O)c2cc(F)ccc2OC[C@@H]2C[C@H](NC(=O)OCC[Si](C)(C)C)CN2C(=O)CC[C@H]1C(=O)OCc1ccccc1 |  |  |  |  | ring closure, yield of all isomers ([1]; from CN(C(=O)c1cc(F)ccc1OC[C@@H]1C[C@H](NC(=O)OCC[Si](C)(C)C)CN1)[C@@H](CCC(=O)O)C(=O)OCc1ccccc1, T3P, CH2Cl2, 10.0 mM, 25.0 °C, […]): 61%
7 | CN1CC(=O)N2C[C@@H](NC(=O)OC(C)(C)C)C[C@H]2COc2ccc(F)cc2C(=O)N(C)[C@H](C(=O)OCc2ccccc2)CCC1=O |  |  |  |  | ring closure, yield of all isomers ([1]; from CNCC(=O)N1C[C@@H](NC(=O)OC(C)(C)C)C[C@H]1COc1ccc(F)cc1C(=O)N(C)[C@@H](CCC(=O)O)C(=O)OCc1ccccc1, FDPP, DMF, 8.44 mM, 25.0 °C, 22.0 h): 94%
8 | CN1CC(=O)N2C[C@H](NC(=O)OC(C)(C)C)C[C@H]2COc2ccc(F)cc2C(=O)N(C)[C@H](C(=O)OCc2ccccc2)CCC1=O |  |  |  |  | ring closure, yield of all isomers ([1]; from CNCC(=O)N1C[C@H](NC(=O)OC(C)(C)C)C[C@H]1COc1ccc(F)cc1C(=O)N(C)[C@@H](CCC(=O)O)C(=O)OCc1ccccc1, T3P, CH2Cl2, 10.5 mM, 25.0 °C, 22.0 h): 87%
9 | CN1CC(=O)N2C[C@@H](N)C[C@H]2COc2ccc(F)cc2C(=O)N(C)[C@@H](C(=O)NCc2ccc3ccccc3c2)CCC1=O [Ex. 91, (2S,11R,19aS)-2-amino-15-fluoro-7,12-dimethyl-N-(2-naphthylmethyl)-5,8,13-trioxo-2,3,6,7,8,9,10,11,12,13,19,19a-dodecahydro-1H,5H-pyrrolo[2,1-c][1,4,7,12] benzoxatriazacyclopentadecine-11-carboxamide] | 91% | 95% | 96% | 88% | 
10 | CN(C)CCNC(=O)[C@@H]1CCC(=O)N(C)CC(=O)N2C[C@@H](NC(=O)Cc3cccc4ccccc34)C[C@H]2COc2ccc(F)cc2C(=O)N1C [Ex. 49, (2S,11S,19aS)-N-[2-(dimethylamino)ethyl]-15-fluoro-7,12-dimethyl-2-{[2-(1-naphthyl)acetyl]amino}-5,8,13-trioxo-2,3,6,7,8,9,10,11,12,13,19,19a-dodecahydro-1H,5H-pyrrolo[2,1-c][1,4,7,12]benzoxatriazacyclopentadecine-11-carboxamide] | 10% | 83% | 83% | 96% | 
11 | CCN(CC)[C@H]1C[C@H]2COc3ccc(F)cc3C(=O)N(C)[C@H](C(=O)N3CCCC3)CCC(=O)N(C)CC(=O)N2C1 [Ex. 43, (2S,11S,19aS)-2-(diethylamino)-15-fluoro-7,12-dimethyl-11-(1-pyrrolidinylcarbonyl)-2,3,6,7,9,10,11,12,19,19a-decahydro-1H,5H-pyrrolo[2,1-c][1,4,7,12] benzoxatriazacyclopentadecine-5,8,13-trione] | 100% | 98% | 82% | 89% | 
12 | CN(C)CCNC(=O)[C@H]1CCC(=O)N(C)CC(=O)N2CCN(C(=O)Cc3ccc4ccccc4c3)C[C@@H]2COc2ccc(F)cc2C(=O)N1C [Ex. 138, (12R,20aR)-N-[2-(dimethylamino)ethyl]-16-fluoro-8,13-dimethyl-2-[2-(2-naphthyl)acetyl]-6,9,14-trioxo-1,2,3,4,7,8,9,10,11,12,13,14,20,20a-tetradecahydro-6H-pyrazino[2,1-c][1,4,7,12] benzoxatriazacyclopentadecine-12-carboxamide] | 62% | 99% | 89% | 78% | 
13 | CN1CCC[C@H](NC(=O)OCc2ccccc2)C(=O)N2C[C@@H](NC(=O)Cc3ccc4ccccc4c3)C[C@H]2COc2cccc(c2)C1=O [Ex. 184, benzyl N-[(4S,6S,10S)-14-methyl-6-{[2-(2-naphthyl)acetyl]amino}-9,15-dioxo-2-oxa-8,14-diazatricyclo[14.3.1.0^4,8]icosa-1(20),16,18-trien-10-yl]carbamate] | 0% | 0% | 66% | 58% | 
14 | CN(C)CCNC(=O)[C@@H]1CCC(=O)N(C)CC(=O)N2C[C@@H](NC(=O)Cc3c[nH]c4ccccc34)C[C@H]2COc2ccc(F)cc2C(=O)N1C [Ex. 11, (2S,11S,19aS)-N-[2-(dimethylamino)ethyl]-15-fluoro-2-{[2-(1H-indol-3-yl)acetyl]amino}-7,12-dimethyl-5,8,13-trioxo-2,3,6,7,8,9,10,11,12,13,19,19a-dodecahydro-1H,5H-pyrrolo [2,1-c][1,4,7,12]benzoxatriazacyclopentadecine-11-carboxamide] | 74% | 77% | 100% | 100% | 
15 | CN1C[C@H](NC(=O)OCc2ccccc2)C(=O)N(C)CC(=O)N2C[C@@H](NC(=O)OC(C)(C)C)C[C@H]2COc2cncc(c2)C1=O [Ex. 272, benzyl N-[(4S,6S,13S)-6-[(tert-butoxycarbonyl)amino]-11,15-dimethyl-9,12,16-trioxo-2-oxa-8,11,15,19-tetraazatricyclo [15.3.1.0^4,8]henicosa-1(21),17,19-trien-13-yl]carbamate] |  |  | 95% | 92% | ring closure, yield of all isomers ([1]; from CNCC(=O)N1C[C@@H](NC(=O)OC(C)(C)C)C[C@H]1COc1cncc(C(=O)N(C)C[C@H](NC(=O)OCc2ccccc2)C(=O)O)c1, T3P, CH2Cl2, 9.75 mM): 38%
16 | CC(=O)N[C@H]1CN(C)C(=O)c2cccc(c2)OC[C@@H]2C[C@H](NC(=O)CN(C)C)CN2C(=O)CN(C)C1=O [Ex. 208, N-[(4S,6S,13S)-13-(acetylamino)-11,15-dimethyl-9,12,16-trioxo-2-oxa-8,11,15-triazatricyclo[15.3.1.0^4,8]henicosa-1(21),17,19-trien-6-yl]-2-(dimethylamino)acetamide] | 84% | 100% | 98% | 90% | 
17 | CN1CC(=O)N2C[C@@H](NC(=O)OCC[Si](C)(C)C)C[C@H]2COc2cccc3c2C[C@@](NC(=O)OC(C)(C)C)(CC3)C(=O)N(C)C[C@H](NC(=O)OCc2ccccc2)C1=O |  |  |  |  | ring closure, yield of all isomers ([1]; from CN(CC(=O)O)C(=O)[C@H](CN(C)C(=O)[C@]1(NC(=O)OC(C)(C)C)CCc2cccc(OC[C@@H]3C[C@H](NC(=O)OCC[Si](C)(C)C)CN3)c2C1)NC(=O)OCc1ccccc1, T3P, CH2Cl2, 10.0 mM, 2.0 h): 44%
18 | CN1CC(=O)N2C[C@H](NC(=O)OC(C)(C)C)C[C@H]2COc2ccc(cc2)C(=O)N(C)[C@H](C(=O)OCc2ccccc2)CCC1=O |  |  |  |  | ring closure, yield of all isomers ([1]; from CNCC(=O)N1C[C@H](NC(=O)OC(C)(C)C)C[C@H]1COc1ccc(C(=O)N(C)[C@@H](CCC(=O)O)C(=O)OCc2ccccc2)cc1, T3P, CH2Cl2, 1.05 mM, 3.0 h): 54%
